In US20230130403A1, “METHODS OF TREATMENT WITH S1P RECEPTOR MODULATORS” (PRIOTHERA SAS, priority 2021, published 2023):

Columns and labels:
dogs = experiment: Repeat-dose toxicity studies in dogs; assay type: in vivo
Text: (§1) Transitory activation of phagocytic cells and increased secretion of soluble markers by these cells is considered a main contributing factor to smooth muscle hypertrophy/hyperplasia.

micronucleus = experiment: In vivo micronucleus study in mice; design: species or system mouse
heart rate = experiment: Heart rate in isolated rabbit heart or guinea pig
Text: (§2) Based on the available in vitro and in vivo data, except for the potential to cause a negative chronotropic effect and some mild increase in blood pressure, there is no indication that KRP203 would cause arrhythmia or QT prolongation in man.

[1] = dog, in vivo
blood pressure = experiment: Blood pressure in dogs; assay type: in vivo, dog
Text: as §2

chromosome aberration = experiment: In vitro genotoxicity: chromosome aberration; assay type: cell-based
rats = experiment: Repeat-dose toxicity studies in rats; assay type: in vivo
Text: as §1

[2] = system: neuropharmacological effects; experiment: Safety pharmacology: neuropharmacological effects in rats; assay type: in vivo, rat; conditions: doses up to 2000 mg/kg, except some piloerection
[3] = system: healthy volunteers and patients (ulcerative colitis, subacute cutaneous lupus erythematosus, Crohn's disease); experiment: Placebo-controlled clinical trials of KRP203 in healthy volunteers and patients; assay type: in vivo, human
Procedure: The clinical experience with mocravimod includes single doses up to 40 mg in healthy volunteers and multiple doses up to 3 mg/day in healthy volunteers and patients. […] In the phase […] study, mocravimod was administered for up to around 3 months in patients with several different hematologic malignancies receiving allogeneic HSCT. […] However, patient numbers were low and efficacy results warrant more data in a more homogeneous patient population. To gather more data on both doses, this phase IIb study will investigate mocravimod at two different dose levels, a daily dose of 1 mg as well as of 3 mg.

[4] = system: human cytochrome P450 isoenzymes; experiment: Inhibition of cytochrome P450 isoenzymes in vitro; assay type: in vitro ADME
Procedure: The in vivo ratio of phosphorylated KRP203 to KRP203 in plasma was up to 45 in rat. As the metabolic activities on KRP203 in human blood and hepatocytes were lower than those of other species, the metabolic clearance of KRP203 in man is expected be lower than that in rat and dog. […] KRP230 formed low amounts of covalent drug-protein adducts in human hepatocytes in vitro. Due to the low levels detected ([…] at 3 hours) in-vitro adduct formation is unlikely to be associated with clinical relevant findings at low dose levels (e.g. below 10 mg).
The weak inhibitory effect of ciclosporin on hepatic CYP3A4 is unlikely to relevantly impact the PK of KRP203.

rabbit skin = experiment: Skin irritation; assay type: in vivo
[5] = system: bronchoconstrictor response induced by challenge agents; experiment: Safety pharmacology: bronchoconstrictor response in rats; assay type: in vivo, rat; conditions: rats pre-treated with 3 mg/kg
Text: as §2

[6] = target: CYP3A4 via the human PXR receptor (Homo sapiens, UniProt O75469); experiment: CYP3A4 induction via PXR; assay type: in vitro ADME
Sequence of CYP3A4 via the human PXR receptor (O75469 whole entry): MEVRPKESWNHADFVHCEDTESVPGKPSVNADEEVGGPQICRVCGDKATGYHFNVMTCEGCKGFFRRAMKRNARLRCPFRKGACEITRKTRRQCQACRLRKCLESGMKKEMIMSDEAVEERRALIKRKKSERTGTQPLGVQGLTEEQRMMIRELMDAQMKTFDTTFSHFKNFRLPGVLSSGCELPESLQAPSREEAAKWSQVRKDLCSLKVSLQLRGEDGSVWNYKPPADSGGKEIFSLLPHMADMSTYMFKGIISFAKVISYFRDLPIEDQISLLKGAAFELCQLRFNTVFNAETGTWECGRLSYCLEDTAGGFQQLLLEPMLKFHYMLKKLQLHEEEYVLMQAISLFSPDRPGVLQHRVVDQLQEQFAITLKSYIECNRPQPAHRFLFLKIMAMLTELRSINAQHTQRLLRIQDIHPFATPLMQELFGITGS

[7] = rat, in vivo

Compound: NC(CO)(CO)CCc1ccc(Sc2cccc(OCc3ccccc3)c2)cc1Cl [KRP203, 2-amino-2-[4-(3-benzyloxyphenylthio)-2-chlorophenyl] ethyl-propane-1,3-diol]
- gastro-intestinal findings (dogs; 26- and 52-week dog toxicity studies): gastro-intestinal tract disturbance with soft/mucoid stools and diarrhea occurred in males only at the high dose level
- no mortality up to daily dose (dogs; dogs, up to 52-week): ≤ 15 mg/kg
- genotoxic potential (micronucleus): no evidence for a genotoxic potential
- potential to decrease heart rate, extrapolated exposure (heart rate): 20.1 µM
- accumulation after repeated dosing (4 and 13 weeks) [1]: no evidence of accumulation
- potential to increase blood pressure, extrapolated exposure (blood pressure): 20.3 µM
- genotoxic potential (chromosome aberration): no evidence for a genotoxic potential
- local tolerability in the gastro-intestinal tract (rats; oral dosing in rats or dogs up to 26 or 13 weeks): no indication for impaired local tolerability
- hepatic effects (rats; rats and mice, not in dogs): mild and did only occur at high dose levels
- no mortality up to daily dose (rats; rats, up to 26-week): ≤ 50 mg/kg
- neuropharmacological effects [2]: no adverse neuropharmacological effects
- tolerability [3]: well tolerated
- effect on cytochromes P450 enzymes and transporters [4]: lack of effect
- potential in inhibiting the activity of human cytochrome P450 isoenzymes ([4]; in vitro tests): did not show relevant potential
- skin irritation (rabbit skin): not irritating
- effects on bronchoconstrictor response induced by challenge agents [5]: no significant effects
- no significant induction of CYP3A4 via the human PXR receptor up to concentration [6]: ≤ 6.15 µM
- increase of exposure at the end of the 13-week treatment compared to single dose ([7]; both, 13 weeks): 2-5 fold
- proportionality between exposure and dose [7]: apparent proportionality between exposure and dose
